This is an account of results in patent publication US20240343704A1, “HALO-SUBSTITUTED AMINO PYRIDINE COMPOUNDS AS INHIBITORS OF THE HAEMATOPOIETIC PROGENITOR KINASE 1 (HPK1)” (priority 2021, published 2024).

Test [1] deals with T1, Recombinant (1-346) HPK1 (h) (Homo sapiens, UniProt Q92918).
T1 construct: Recombinant (1-346) HPK1 (h) is incubated with 8 mM MOPS pH 7.0
T1 sequence (Q92918 1-346): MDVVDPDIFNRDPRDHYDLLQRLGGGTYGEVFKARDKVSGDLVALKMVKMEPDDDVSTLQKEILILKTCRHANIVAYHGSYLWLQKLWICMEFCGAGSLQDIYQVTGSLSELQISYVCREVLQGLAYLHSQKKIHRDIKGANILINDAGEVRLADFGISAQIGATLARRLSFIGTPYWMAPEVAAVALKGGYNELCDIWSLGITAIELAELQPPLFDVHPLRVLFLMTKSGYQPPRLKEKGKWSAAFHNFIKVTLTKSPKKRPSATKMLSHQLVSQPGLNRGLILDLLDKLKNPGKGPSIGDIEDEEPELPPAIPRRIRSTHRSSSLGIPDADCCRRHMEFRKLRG
Kind of test: HPK1 Human STE Kinase Enzymatic Radiometric Assay. Format: biochemical. The note with it: read-out: HPK1 IC50 nM Range*. The protocol: A stock solution of 10 mM of test compound is prepared in DMSO. The compound plate was prepared by 3-fold and 9-point serial dilutions. […] The reaction is initiated by The addition of the Mg/ATP mix. After incubation for 40 minutes at RT, the reaction is stopped by the addition of phosphoric acid to a concentration of 0.5%.

Test [2] concerns the target Lck (h) (Homo sapiens, UniProt P06239). Kind of test: Lck Human  Kinase Enzymatic Radiometric Assay. It is filed as biochemical. The note with it: for IC50: read-out: Lck IC50 nM Range*; for LcK IC50/HPK IC50 selectivity: ratio of Lck IC50 to HPK1 IC50. The method, then: Lck (h) is incubated with 50 mM Tris pH 7.5, 0.1 mM EGTA, 0.1 mM Na3VO4, 250 uM KVEKIGEGTYGVVYK (Cdc2 peptide), 10 mM MgAcetate and [gamma-33P]-ATP (specific activity and concentration as required). The reaction is initiated by the addition of the Mg/ATP mix. After incubation for 40 minutes at RT, the reaction is stopped by the addition of phosphoric acid to a concentration of 0.5%. 10 uL of the reaction is then spotted onto a P30 filtermat and washed four times for 4 minutes in 0.425% phosphoric acid and once in methanol prior to drying and scintillation counting. For more details on the kinase assay procedures see: Gao, Y. et. al.; Biochem J., 451 (2): 313-328, 2013.

Sequence of Lck (h) (P06239 whole entry): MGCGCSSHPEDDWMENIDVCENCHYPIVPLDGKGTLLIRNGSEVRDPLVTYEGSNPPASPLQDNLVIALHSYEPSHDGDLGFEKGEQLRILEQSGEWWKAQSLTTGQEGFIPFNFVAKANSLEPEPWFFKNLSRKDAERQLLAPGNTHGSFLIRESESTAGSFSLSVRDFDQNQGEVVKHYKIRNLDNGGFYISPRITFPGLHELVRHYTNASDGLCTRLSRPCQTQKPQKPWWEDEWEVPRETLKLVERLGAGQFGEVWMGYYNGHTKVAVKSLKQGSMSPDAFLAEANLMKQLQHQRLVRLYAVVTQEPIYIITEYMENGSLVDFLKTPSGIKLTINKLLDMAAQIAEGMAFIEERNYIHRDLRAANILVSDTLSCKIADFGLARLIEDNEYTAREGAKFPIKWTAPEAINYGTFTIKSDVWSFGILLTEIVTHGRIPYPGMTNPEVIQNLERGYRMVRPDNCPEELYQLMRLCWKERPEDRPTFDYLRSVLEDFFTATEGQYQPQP

On to `CN1CCN(c2ccc(-c3cnc(N)c(-c4ccc5c(c4)CCNC5=O)c3F)cc2)CC1` [I-1, 6-(2-amino-4-fluoro-5-(4-(4-methylpiperazin-1-yl)phenyl)pyridin-3-yl)-3,4-dihydroisoquinolin-1(2H)-one], for which the IC50 was 11 to 100 nM in test [1] and 101 to 1000 nM in test [2].

As to `Nc1ncc(-c2ccc(N3CCOCC3)cc2)c(F)c1-c1ccc2c(c1)CCNC2=O` [I-2, 6-(2-amino-4-fluoro-5-(4-morpholinophenyl)pyridin-3-yl)-3,4-dihydroisoquinolin-1(2H)-one], the IC50 is 11 to 100 nM in test [1] and greater than 1000 nM in test [2].

With `CC(C)S(=O)(=O)c1ccc(-c2cnc(N)c(-c3ccc4c(c3)CCNC4=O)c2F)cc1` [I-3, 6-(2-amino-4-fluoro-5-(4-(isopropylsulfonyl)phenyl)pyridin-3-yl)-3,4-dihydroisoquinolin-1(2H)-one], the IC50 in test [1] was 11 to 100 nM; in test [2], greater than 1000 nM.

For the compound `CC(C)[C@@H]1CN(c2ccc(-c3cnc(N)c(-c4ccc5c(c4)CCNC5=O)c3F)cc2)CCO1` [I-4, (R)-6-(2-amino-4-fluoro-5-(4-(2-isopropylmorpholino)phenyl)pyridin-3-yl)-3,4-dihydroisoquinolin-1(2H)-one], the IC50 in test [1] is 11 to 100 nM; in test [2] it was greater than 1000 nM.

In the case of `CC(C)[C@H]1CN(c2ccc(-c3cnc(N)c(-c4ccc5c(c4)CCNC5=O)c3F)cc2)CCO1` [I-5, (S)-6-(2-amino-4-fluoro-5-(4-(2-isopropylmorpholino)phenyl)pyridin-3-yl)-3,4-dihydroisoquinolin-1(2H)-one], the IC50 in test [1] was 11 to 100 nM; in test [2], greater than 1000 nM.

On to `CC(C)[C@@H]1CN(c2ccc(-c3cnc(N)c(-c4ccc5c(c4)CCNC5=O)c3F)c(F)c2)CCO1` [I-6, (R)-6-(2-amino-4-fluoro-5-(2-fluoro-4-(2-isopropylmorpholino)phenyl)pyridin-3-yl)-3,4-dihydroisoquinolin-1(2H)-one], for which the IC50 in test [1] is 11 to 100 nM; in test [2], greater than 1000 nM.

On to `CC(C)[C@H]1CN(c2ccc(-c3cnc(N)c(-c4ccc5c(c4)CCNC5=O)c3F)c(F)c2)CCO1` [I-7, (S)-6-(2-amino-4-fluoro-5-(2-fluoro-4-(2-isopropylmorpholino)phenyl)pyridin-3-yl)-3,4-dihydroisoquinolin-1(2H)-one], for which the results for the IC50 in test [1] and in test [2] were 101 to 1000 nM and greater than 1000 nM, respectively.

`CN1CCN(c2ccc(-c3cc(-c4ccc5c(c4)CCNC5=O)c(N)nc3F)cc2)CC1` [I-8, 6-(2-amino-6-fluoro-5-(4-(4-methylpiperazin-1-yl)phenyl)pyridin-3-yl)-3,4-dihydroisoquinolin-1(2H)-one]: the IC50 in test [1] is 0.1 to 10 nM; in test [2] it was greater than 1000 nM.

Take `CC(C)[C@@H]1CN(c2ccc(-c3cc(-c4ccc5c(c4)CCNC5=O)c(N)nc3F)cc2)CCO1` [I-9, (R)-6-(2-amino-6-fluoro-5-(4-(2-isopropylmorpholino)phenyl)pyridin-3-yl)-3,4-dihydroisoquinolin-1(2H)-one]: the IC50 in test [1] was 0.1 to 10 nM; in test [2], greater than 1000 nM.

With `CC(C)[C@H]1CN(c2ccc(-c3cc(-c4ccc5c(c4)CCNC5=O)c(N)nc3F)cc2)CCO1` [I-10, (S)-6-(2-amino-6-fluoro-5-(4-(2-isopropylmorpholino)phenyl)pyridin-3-yl)-3,4-dihydroisoquinolin-1(2H)-one], the IC50 is 11 to 100 nM in test [1] and greater than 1000 nM in test [2].

Consider `CC(C)[C@@H]1CN(c2ccc(-c3cc(-c4ccc5c(c4)CCNC5=O)c(N)nc3F)c(F)c2)CCO1` [I-11, (R)-6-(2-amino-6-fluoro-5-(2-fluoro-4-(2-isopropylmorpholino)phenyl)pyridin-3-yl)-3,4-dihydroisoquinolin-1(2H)-one], for which the 50% inhibitory concentration (IC50) in test [1] was 0.1 to 10 nM; in test [2], greater than 1000 nM.

For `CC(C)[C@H]1CN(c2ccc(-c3cc(-c4ccc5c(c4)CCNC5=O)c(N)nc3F)c(F)c2)CCO1` [I-12, (S)-6-(2-amino-6-fluoro-5-(2-fluoro-4-(2-isopropylmorpholino)phenyl)pyridin-3-yl)-3,4-dihydroisoquinolin-1(2H)-one], the IC50 was 11 to 100 nM in test [1] and greater than 1000 nM in test [2].

On to `CN1[C@@H]2CC[C@H]1CN(c1ccc(-c3cc(-c4ccc5c(c4)CCNC5=O)c(N)nc3F)cc1)C2` [I-13, 6-(2-amino-6-fluoro-5-(4-((1R,5S)-8-methyl-3,8-diazabicyclo[3.2.1]octan-3-yl)phenyl)pyridin-3-yl)-3,4-dihydroisoquinolin-1(2H)-one], for which the IC50 in test [1] lay in the range of 0.1 to 10 nM; in test [2], 101 to 1000 nM.

For the compound `CN1C[C@H]2C[C@@]2(c2ccc(-c3cc(-c4ccc5c(c4)CCNC5=O)c(N)nc3F)cc2)C1` [I-14, 6-(2-amino-6-fluoro-5-(4-((1R,5S)-3-methyl-3-azabicyclo[3.1.0]hexan-1-yl)phenyl)pyridin-3-yl)-3,4-dihydroisoquinolin-1(2H)-one], the 50% inhibitory concentration (IC50) in test [1] is 0.1 to 10 nM; in test [2], greater than 1000 nM.

Consider `CC(C)S(=O)(=O)c1ccc(-c2cc(-c3ccc4c(c3)CCNC4=O)c(N)nc2F)cc1` [I-15, 6-(2-amino-6-fluoro-5-(4-(isopropylsulfonyl)phenyl)pyridin-3-yl)-3,4-dihydroisoquinolin-1(2H)-one], for which the IC50 is 0.1 to 10 nM in test [1] and greater than 1000 nM in test [2].

Regarding `Nc1nc(F)c(-c2ccc(N3CCNCC3)cc2)cc1-c1ccc2c(c1)CCNC2=O` [I-17, 6-(2-amino-6-fluoro-5-(4-(piperazin-1-yl)phenyl)pyridin-3-yl)-3,4-dihydroisoquinolin-1(2H)-one], the IC50 in test [1] was 0.1 to 10 nM; in test [2], greater than 1000 nM.

As to `CN1C[C@@H]2C[C@H]1CN2c1ccc(-c2cc(-c3ccc4c(c3)CCNC4=O)c(N)nc2F)cc1` [I-18, 6-(2-amino-6-fluoro-5-(4-(5-methyl-2,5-diazabicyclo[2.2.1]heptan-2-yl)phenyl)pyridin-3-yl)-3,4-dihydroisoquinolin-1(2H)-one], the IC50 in test [1] was 0.1 to 10 nM; in test [2], greater than 1000 nM.

On to `Nc1nc(F)c(-c2ccc(N3CCOCC3)cc2)cc1-c1cc2c(cc1F)C(=O)NCC2` [I-19, 6-(2-amino-6-fluoro-5-(4-morpholinophenyl)pyridin-3-yl)-7-fluoro-3,4-dihydroisoquinolin-1(2H)-one], for which the IC50 was 0.1 to 10 nM in test [1] and greater than 1000 nM in test [2].

As for `Nc1nc(F)c(-c2ccc(N3CCN(CCF)CC3)cc2)cc1-c1ccc2c(c1)CCNC2=O` [I-20, 6-(2-amino-6-fluoro-5-(4-(4-(2-fluoroethyl)piperazin-1-yl)phenyl)pyridin-3-yl)-3,4-dihydroisoquinolin-1(2H)-one], the IC50 was 0.1 to 10 nM in test [1] and greater than 1000 nM in test [2].

On to `Nc1nc(F)c(-c2ccc(N3CCN(CC(F)F)CC3)cc2)cc1-c1ccc2c(c1)CCNC2=O` [I-21, 6-(2-amino-5-(4-(4-(2,2-difluoroethyl)piperazin-1-yl)phenyl)-6-fluoropyridin-3-yl)-3,4-dihydroisoquinolin-1(2H)-one], for which the half-inhibitory concentration (IC50) in test [1] is 0.1 to 10 nM; in test [2], greater than 1000 nM.

Regarding `Nc1nc(F)c(-c2ccc(OC3CCNCC3)cc2)cc1-c1ccc2c(c1)CCNC2=O` [I-22, 6-(2-amino-6-fluoro-5-(4-(piperidin-4-yloxy)phenyl)pyridin-3-yl)-3,4-dihydroisoquinolin-1(2H)-one], the IC50 was 0.1 to 10 nM in test [1] and greater than 1000 nM in test [2].

As to `Nc1ncc(-c2ccc(C3CCNCC3)cc2)cc1-c1ccc2c(c1)CCNC2=O` [reference compound], the “LcK IC50/HPK IC50 selectivity” value in test [2] amounted to 45.

`Nc1ncc(-c2cnn(C3CCOCC3)c2)cc1-c1ccc2c(c1)CCNC2=O` [reference compound]: the “LcK IC50/HPK IC50 selectivity” value in test [2] came out at 0.2.

With `Nc1ncc(-c2ccc(N3CCCC3)cc2)cc1-c1ccc2c(c1)CCNC2=O` [reference compound], the “LcK IC50/HPK IC50 selectivity” value in test [2] turned out to be 69.

Regarding `Nc1ncc(-c2ccc(N3CCNCC3)c(C(F)(F)F)c2)cc1-c1ccc2c(c1)CCNC2=O` [reference compound], the “LcK IC50/HPK IC50 selectivity” value in test [2] worked out at 145.

Consider `Nc1ncc(-c2ccc3c(c2)OCCCO3)cc1-c1ccc2c(c1)CCNC2=O` [reference compound], for which the “LcK IC50/HPK IC50 selectivity” value in test [2] came out at 485.

With `Nc1ncc(-c2ccc(N3CCN4CCCC4C3)cc2)cc1-c1ccc2c(c1)CCNC2=O` (centres unmarked) [reference compound], in test [2], the “LcK IC50/HPK IC50 selectivity” value was determined as 20.

For the compound `Nc1ncc(-c2ccc(N3CCCN4CCCC4C3)cc2)cc1-c1ccc2c(c1)CCNC2=O` (centres unmarked) [reference compound], the “LcK IC50/HPK IC50 selectivity” value in test [2] was determined as 92.

As to `Nc1ncc(-c2ccc(C3CCNCC3)cc2)cc1-c1cc2c(cc1F)C(=O)NCC2` [reference compound], in test [2], the “LcK IC50/HPK IC50 selectivity” value is on record as 27.

In general, IC50 refers to the concentration at which inhibition is half-maximal.
